{"source": "patent US20120093738A1", "about": "“TASTE-MASKED ORAL FORMULATIONS OF INFLUENZA ANTIVIRALS” (Rubicon Research Private Limited, priority 2009, published 2012)", "origin": "cited, not measured here", "settings": "reconstituted multi-dose suspensions", "data": [{"compound": "CCOC(=O)C1=C[C@@H](OC(CC)CC)[C@H](NC(C)=O)[C@@H](N)C1", "note": "[oseltamivir phosphate]", "values": [{"measurement": "time within which the suspension needs to be used", "result": "≤ 10", "unit": "days"}]}]}
